Assay results from patent US12364703B2, “Homogeneous ophthalmic composition” (priority 2015, dated 2025).
Where a name gives a salt, the structure may show the parent alone.

Assay: LCMS and standard curve analysis of the concentration of each active ingredient in solution
Type: physicochemical
Settings: three samples of solutions containing the three active ingredients; LCMS, standard curve
Description: Separate stock solutions of moxifloxacin HCI, dexamethasone, and sodium bromfenac were used as standards. Three different samples of solutions containing the three active ingredients, i.e., moxifloxacin HCI, dexamethasone, and sodium bromfenac were analyzed for the concentration of moxifloxacin in solution, the concentration of dexamethasone in solution, and the concentration of sodium bromfenac in solution.

| Concentration in Solution | SMILES |
| --- | --- |
| 40.5 µg/mL | Nc1c(CC(=O)O)cccc1C(=O)c1ccc(Br)cc1 [bromfenac sodium] |
| 5458 µg/mL | COc1c(N2C[C@@H]3CCCN[C@@H]3C2)c(F)cc2c(=O)c(C(=O)O)cn(C3CC3)c12 [moxifloxacin HCI, moxifloxacin hydrochloride] |
